Assay results as given in patent publication US10294246B2, “Substituted boronic acids and boronate esters as immunoproteasome inhibitors” (MERCK PATENT GMBH, priority 2014, dated 2019).
pIC50: −log10 of the molar value.

Legend:
[1] = target: human immunoproteasome (LMP7) (Homo sapiens (Human), UniProt P28062); test: Determination of LMP7 activity (fluorescence intensity assay, Suc-LLVY-AMC); type: biochemical; conditions: for Selectivity LMP7 vs Beta5: LMP7 versus Beta5; for pIC50: purified human immunoproteasome 0.25 nM, Suc-LLVY-AMC 40 μM
Method: Determination of LMP7 Activity:
Measurement of LMP7 inhibition is performed in 384 well format based on fluorescence intensity assay.
(§1) Purified human immunoproteasome (0.25 nM) and serial diluted compounds in DMSO (range of concentrations from 30 μM to […]) or controls are incubated for 20 minutes at 25° C. in assay buffer containing 50 mM Tris pH 7.4, 0.03% SDS, 1 mM EDTA and 1% DMSO. The reaction is initiated by the addition of the fluorogenic peptide substrate, Suc-LLVY-AMC (Bachem 1-1395), at a concentration of 40 μM. After 60 minutes of incubation at 37° C., fluorescence intensity is measured at λex=350 nm and λem=450 nm with a fluorescence reader (Perkin Elmer Envision reader or equivalent).

[2] = target: human constitutive proteasome (Beta5) (Homo sapiens (Human), UniProt P28074); test: Determination of Beta5 activity (fluorescence intensity assay, Suc-LLVY-AMC); type: biochemical; conditions: purified human constitutive proteasome 1.25 nM, Suc-LLVY-AMC 40 μM
Method: Determination of Beta5 Activity:
Measurement of Beta5 inhibition is performed in 384 well format based on fluorescence intensity assay.
as §1, with “constitutive proteasome (1.25” for “immunoproteasome (0.25”

Compound	Selectivity LMP7 vs Beta5 [1]	pIC50 [1]	pIC50 [2]
CC(=O)Nc1ccc(CC(=O)N[C@@H](Cc2ccc(C)cc2C)B(O)O)cc1 [Compound No. 38]	++++ (70 ≤ Selectivity < 100)	> 7.30	5.30 to 6.30
CCO[C@@H](C(=O)N[C@@H](CC1COc2c(C)cccc21)B(O)O)c1ccccc1 (stereo partly drawn) [Compound No. 109, [(1R)-1-[[(2R)-2-ethoxy-2-phenyl-acetyl]amino]-2-(7-methyl-2,3-dihydrobenzofuran-3-yl)ethyl]boronic acid]	+++++ (Selectivity ≥ 100)	> 7.30	< 5.30
COc1ccc(CC(=O)N[C@H](C[C@@H]2COc3ccccc32)B(O)O)cc1 [Compound No. 117, [(1S)-2-[(3S)-2,3-dihydrobenzofuran-3-yl]-1-[[2-(4-methoxyphenyl)-acetyl]amino]ethyl]boronic acid]	+++++ (Selectivity ≥ 100)	6.30 to 7.30	< 5.30
CCOc1ccc(CC(=O)N[C@@H](C[C@@H]2COc3ccccc32)B(O)O)nc1 [Compound No. 131, [(1R)-2-[(3S)-2,3-dihydrobenzofuran-3-yl]-1-[[2-(5-ethoxy-2-pyridyl)acetyl]amino]ethyl]boronic acid]	+++++ (Selectivity ≥ 100)	> 7.30	5.30 to 6.30
O=C(N[C@@H](Cc1coc2ccccc12)B(O)O)C(c1ccccc1)c1ccccc1 [Compound No. 68, [(1R)-2-(benzofuran-3-yl)-1-[(2,2-diphenylacetyl)amino]ethyl]boronic acid]	+++++ (Selectivity ≥ 100)	> 7.30	5.30 to 6.30
COc1ccc(CC(=O)N[C@@H](C[C@H]2COc3ccccc32)B(O)O)cc1 [Compound No. 122, [(1R)-2-[(3R)-2,3-dihydrobenzofuran-3-yl]-1-[[2-(4-methoxyphenyl)-acetyl]amino]ethyl]boronic acid]		6.30 to 7.30	
Cc1cccc2c(C[C@@H](NC(=O)[C@H](CO)c3ccccc3)B(O)O)coc12 [Compound No. 80, [(1S)-1-[[(2S)-3-hydroxy-2-phenyl-propanoyl]amino]-2-(7-methylbenzofuran-3-yl)ethyl]boronic acid]	+++++ (Selectivity ≥ 100)	6.30 to 7.30	< 5.30
Cc1cccc2c(C[C@H](NC(=O)Cc3ccccc3C#N)B(O)O)coc12 [Compound No. 104, [(1R)-1-[[2-(2-cyanophenyl)acetyl]amino]-2-(7-methylbenzofuran-3-yl)ethyl]boronic acid]	+++++ (Selectivity ≥ 100)	> 7.30	5.30 to 6.30
CCO[C@@H](C(=O)N[C@@H](CC1COc2ccccc21)B(O)O)c1ccccc1 (stereo partly drawn) [Compound No. 111, [(1R)-2-(2,3-dihydrobenzofuran-3-yl)-1-[[(2R)-2-ethoxy-2-phenyl-acetyl]amino]ethyl]boronic acid]	+++++ (Selectivity ≥ 100)	> 7.30	< 5.30
COc1ccc(CC(=O)N[C@@H](C[C@@H]2COc3ccccc32)B(O)O)cc1 [Compound No. 114, [(1R)-2-[(3S)-2,3-dihydrobenzofuran-3-yl]-1-[[2-(4-methoxyphenyl)-acetyl]amino]ethyl]boronic acid]	+++++ (Selectivity ≥ 100)	> 7.30	5.30 to 6.30
COc1cccc(OC)c1CC(=O)N[C@@H](Cc1ccc(C)cc1C)B(O)O [Compound No. 42, [(1R)-1-[[2-(2,6-dimethoxyphenyl)acetyl]amino]-2-(2,4-dimethylphenyl)ethyl]boronic acid]	++ (10 ≤ Selectivity < 50)	6.30 to 7.30	< 5.30
O=C(COc1ncc(Cl)cc1Cl)N[C@@H](Cc1ccccc1)B(O)O [Compound No. 1, [(1R)-1-[[2-[(3,5-dichloro-2-pyridyl)oxy]acetyl]amino]-2-phenyl-ethyl]boronic acid]	++ (10 ≤ Selectivity < 50)	> 7.30	6.30 to 7.30
CO[C@@H](C(=O)N[C@@H](Cc1coc2c(C)cccc12)B(O)O)c1ccccc1 [Compound No. 76, [(1R)-1-[[(2R)-2-methoxy-2-phenyl-acetyl]amino]-2-(7-methylbenzofuran-3-yl)ethyl]boronic acid]	+++++ (Selectivity ≥ 100)	> 7.30	5.30 to 6.30

Now from value to compound:

Selectivity LMP7 vs Beta5 [1]	pIC50 [1]	pIC50 [2]	Compound
+++++ (Selectivity ≥ 100)	> 7.30	6.30 to 7.30	O=C(Cc1cccc(OCCO)c1)N[C@@H](Cc1coc2ccccc12)B(O)O [Compound No. 41, [(1R)-2-(benzofuran-3-yl)-1-[[2-[3-(2-hydroxyethoxy)phenyl]acetyl]-amino]ethyl]boronic acid]
+++++ (Selectivity ≥ 100)	> 7.30	6.30 to 7.30	O=C(Cc1ccc(OCCO)cc1)N[C@@H](Cc1coc2ccccc12)B(O)O [Compound No. 39, [(1R)-2-(benzofuran-3-yl)-1-[[2-[4-(2-hydroxyethoxy)phenyl]acetyl]-amino]ethyl]boronic acid]
++++ (70 ≤ Selectivity < 100)	> 7.30	5.30 to 6.30	O=C(Cc1ccccc1OCCCO)N[C@@H](Cc1coc2ccccc12)B(O)O [Compound No. 55, [(1R)-2-(benzofuran-3-yl)-1-[[2-[2-(3-hydroxypropoxy)phenyl]acetyl]-amino]ethyl]boronic acid]
+++++ (Selectivity ≥ 100)	6.30 to 7.30	< 5.30	O=C(Cc1ccccc1OCCCO)N[C@H](Cc1coc2ccccc12)B(O)O [Compound No. 61, [(1S)-2-(benzofuran-3-yl)-1-[[2-[2-(3-hydroxypropoxy)phenyl]acetyl]-amino]ethyl]boronic acid]
++++ (70 ≤ Selectivity < 100)	> 7.30	6.30 to 7.30	O=C(N[C@@H](Cc1coc2ccccc12)B(O)O)[C@@H](CO)c1ccccc1 [Compound No. 59, [(1R)-2-(benzofuran-3-yl)-1-[[(2R)-3-hydroxy-2-phenyl-propanoyl]-amino]ethyl]boronic acid]
+++++ (Selectivity ≥ 100)		5.30 to 6.30	C[C@H](C(=O)N[C@@H](Cc1coc2ccccc12)B(O)O)c1ccccc1 [Compound No. 37, [(1R)-2-(benzofuran-3-yl)-1-[[(2S)-2-phenylpropanoyl]amino]ethyl]-boronic acid]
+++++ (Selectivity ≥ 100)	> 7.30	5.30 to 6.30	CN(C)C(=O)c1ccccc1CC(=O)N[C@@H](Cc1coc2ccccc12)B(O)O [Compound No. 66, [(1R)-2-(benzofuran-3-yl)-1-[[2-[2-(dimethylcarbamoyl)phenyl]acetyl]-amino]ethyl]boronic acid]
++++ (70 ≤ Selectivity < 100)	> 7.30	6.30 to 7.30	N#Cc1ccc(CC(=O)N[C@@H](Cc2coc3ccccc23)B(O)O)cc1 [Compound No. 9, [(1R)-2-(benzofuran-3-yl)-1-[[2-(4-cyanophenyl)acetyl]amino]ethyl]-boronic acid]
+++ (50 ≤ Selectivity < 70)			Cc1ccc(OCCC(=O)N[C@@H](Cc2coc3ccccc23)B(O)O)cc1 [Compound No. 7, [(1R)-2-(benzofuran-3-yl)-1-[3-(4-methylphenoxy)propanoylamino]-ethyl]boronic acid]
+++++ (Selectivity ≥ 100)	> 7.30	6.30 to 7.30	O=C(Cc1ccccc1)N[C@@H](Cc1coc2ccccc12)B(O)O [Compound No. 6, [(1R)-2-(benzofuran-3-yl)-1-[(2-phenylacetyl)amino]ethyl]boronic acid]
+++++ (Selectivity ≥ 100)	> 7.30	5.30 to 6.30	COc1ccc(CC(=O)N[C@@H](Cc2coc3c(C)cccc23)B(O)O)cc1 [Compound No. 82, [(1R)-1-[[2-(4-methoxyphenyl)acetyl]amino]-2-(7-methylbenzofuran-3-yl)ethyl]boronic acid]
+++++ (Selectivity ≥ 100)	> 7.30	< 5.30	Cc1ccc(C)c2c(C[C@H](NC(=O)Cc3ccccc3)B(O)O)coc12 [Compound No. 128, [(1R)-2-(4,7-dimethylbenzofuran-3-yl)-1-[(2-phenylacetyl)-amino]ethyl]boronic acid]
++++ (70 ≤ Selectivity < 100)		5.30 to 6.30	CC(=O)Nc1ccccc1CC(=O)N[C@@H](Cc1coc2ccccc12)B(O)O [Compound No. 103, [(1R)-1-[[2-(2-acetamidophenyl)acetyl]amino]-2-(benzofuran-3-yl)ethyl]boronic acid]
+++++ (Selectivity ≥ 100)			CCO[C@@H](C(=O)N[C@@H](Cc1coc2ccccc12)B(O)O)c1ccccc1 [Compound No. 70, [(1R)-2-(benzofuran-3-yl)-1-[[(2R)-2-ethoxy-2-phenyl-acetyl]amino]-ethyl]boronic acid]
